Drawing on PubChem BioAssay AID651779 (The Scripps Research Institute Molecular Screening Center, 2012), this text covers IC50 for 51 compounds.

pIC50: −log10 of the molar value. Activity calls are given as the source filed them.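 The calls were made as follows: active = cytotoxic to HEK293 cells with IC50 at or below 10 µM; inactive = IC50 above 10 µM.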

The test system of this assay is HEK293 viability, CellTiter-Glo ATP luminescence. The experiment in a line: HEK293 cell cytotoxicity, late-stage follow-up, cytotoxicity control for SRC3 inhibitor project, luminescence, dose response (AID 651779).
With `Cc1c(/C(O)=C2/C(=O)C(=O)N(Cc3cccnc3)C2c2ccccn2)cnn1-c1ccccc1` (stereo unspecified), the IC50 (in general, the concentration that inhibits the measured activity by half) was > 35.9 µM (inactive).

Regarding `Cc1ccc(OCC(=O)c2cc(C)n(Cc3cccs3)c2C)c([N+](=O)[O-])n1`, the IC50 is > 35.9 µM (inactive).

Regarding `Cn1nc(C(F)(F)F)c(C#N)c1N1CCN(c2ccc(F)cc2)CC1`, the IC50 is 28.3 µM (inactive).

As to `CN(C)c1ccc(CNC(=O)CCNS(=O)(=O)c2cc(Br)cnc2N)cc1`, the IC50 was > 35.9 µM (inactive).

With `O=C(Nc1nc(-c2ccccn2)cs1)c1cccc(S(=O)(=O)N2CCOCC2)c1`, the IC50 was > 35.9 µM (inactive).

Regarding `O=C(Nc1cccnc1)c1ccc(C(=O)Nc2cccnc2)cc1`, the IC50 was > 35.9 µM (inactive).

Turning to `O=C(Nc1nc2ccccc2s1)C1c2ccccc2Oc2ccccc21`, the IC50 was > 35.9 µM (inactive).

Take `NC(=S)NN=C1CCSc2ccc(Cl)cc21`: the IC50 is 31.4 µM (inactive).

With `O=C(CCl)N1N=C(c2ccco2)CC1c1ccco1` (stereo unspecified), the pIC50 (in general, −log10 of the IC50, conventionally taken in molar units) was 5.24.

For the compound `Cc1ccc(OCC(=O)c2cc(C)n(-c3ccccc3)c2C)c([N+](=O)[O-])n1`, the IC50 was > 35.9 µM (inactive).

`COC(=O)c1c(C)n(-c2ccc(OC)cc2)c2ccc(O)cc12`: the IC50 was > 35.9 µM (inactive).

As to `O=C1CCC2S/C(=C/Nc3ccc(C(F)(F)F)cc3)C(=O)N12` (stereo unspecified), the IC50 is > 35.9 µM (inactive).

With `NS(=O)(=O)c1ccc(Nc2nc(-c3cccnc3)cs2)cc1`, the IC50 was > 35.9 µM (inactive).

Regarding `Cc1cc(C)cc(N=c2c([N+](=O)[O-])nn(-c3ccc4c(c3)OCCO4)n2O)c1`, the IC50 was > 35.9 µM (inactive).

For `COc1cc2c(cc1OC)C(NC(=O)C(F)(F)F)CNC2=O` (stereo unspecified), the pIC50 was 5.01.

As to `O=C(CCl)NC(Cc1ccccc1)c1ccccc1` (stereo unspecified), the IC50 was 22.3 µM (inactive).

As for `O=[N+]([O-])c1cccc2c1ccc1ncccc12`, the IC50 was > 35.9 µM (inactive).

For the compound `S=C(c1ccc(-c2ccccc2)cc1)N1CCOCC1`, the IC50 is > 35.9 µM (inactive).

For the compound `COc1ccc(/C=C2/SC(=S)N(CCC(=O)O)C2=O)cc1`, the IC50 is > 35.9 µM (inactive).

Take `O=C(CCCc1nc(-c2ccccc2Cl)no1)NC1CCCC1`: the IC50 is > 35.9 µM (inactive).

As to `Cc1c(CC(=O)NCCCC(=O)O)c(=O)oc2cc3c(cc12)CCC(C)(C)O3`, the IC50 was > 35.9 µM (inactive).

For `CCOc1ccc(/C=C2\SC(=S)N(CCCC(=O)NCCCN3CCOCC3)C2=O)cc1`, the IC50 is > 35.9 µM (inactive).

In the case of `Cc1nn(CC(=O)N2CCN(c3cccc(C(F)(F)F)c3)CC2)c(=O)c2cccn12`, the IC50 was > 35.9 µM (inactive).

For the compound `Cc1cc(N=c2c([N+](=O)[O-])nn(-c3ccc4c(c3)OCCO4)n2O)ccc1Br`, the IC50 was > 35.9 µM (inactive).

Turning to `COc1cc(C2c3cc4c(cc3C(OC3OC5COC(c6cccs6)OC5C(O)C3O)C3COC(=O)C23)OCO4)cc(OC)c1O` (stereo unspecified), the IC50 was 24 µM (inactive).

With `O=[N+]([O-])c1nn(-c2ccc3c(c2)OCCO3)n(O)c1=Nc1ccccc1`, the IC50 is > 35.9 µM (inactive).

In the case of `NC(=O)c1sc2nc3c(c(-c4ccco4)c2c1N)CCC3`, the IC50 was > 35.9 µM (inactive).

`O=C(NC(NC(=S)N1CCOCC1)C(Cl)(Cl)Cl)c1ccc(Cl)cc1` (stereo unspecified): the IC50 was > 35.9 µM (inactive).

For `Cc1ccc(N=c2c([N+](=O)[O-])nn(-c3ccc4c(c3)OCCO4)n2O)c(Cl)c1`, the IC50 is > 35.9 µM (inactive).

As for `CCc1ccc(N=c2c([N+](=O)[O-])nn(-c3ccc4c(c3)OCCO4)n2O)cc1`, the IC50 is > 35.9 µM (inactive).

For the compound `CCOC(=O)C(=CNc1ccc(NC2=NCC(C)S2)cc1)C(=O)OCC` (stereo unspecified), the IC50 is > 35.9 µM (inactive).

For `CCC(=O)N1CCN(c2ccnc3cc(Cl)ccc23)CC1`, the IC50 was > 35.9 µM (inactive).

Consider `CC(C)N(c1ccccc1)c1ccc(NC(=O)CCl)cc1`, for which the negative logarithm of the IC50 (pIC50) is 6.36.

On to `CCc1ccc(/C=C2\SC(=S)N(CCCC(=O)NCCCN3CCOCC3)C2=O)cc1`, for which the IC50 is 17.9 µM (inactive).

As to `CC(C)n1c(SCC(=O)Nc2nc3c(s2)CCCC3)nc2c1c(=O)n(C)c(=O)n2C`, the IC50 is 33.6 µM (inactive).

On to `Cc1cccc(NC(=O)c2cc(Cl)ccc2[N+](=O)[O-])c1`, for which the IC50 was > 35.9 µM (inactive).

Regarding `O=C(CCl)N1N=C(c2ccco2)CC1c1cccs1` (stereo unspecified), the pIC50 was 5.54.

On to `O=[N+]([O-])c1nn(-c2ccc3c(c2)OCCO3)n(O)c1=Nc1ccc(Cl)cc1`, for which the IC50 was > 35.9 µM (inactive).

In the case of `COc1cc(N=c2c([N+](=O)[O-])nn(-c3ccc4c(c3)OCCO4)n2O)cc(OC)c1`, the IC50 is 25.6 µM (inactive).

In the case of `Cc1ccc(/C=C2/SC(=S)N(CCCC(=O)Nc3ccc(O)cc3)C2=O)cc1`, the IC50 was > 35.9 µM (inactive).

For `O=C(COC(=O)c1ccc[nH]c1=O)Nc1ccc(N2CCCCC2)cc1`, the IC50 is > 35.9 µM (inactive).

Regarding `CC(=O)/C(N=Nc1ccc2c(c1)OCCO2)=C(/C)O`, the IC50 is > 35.9 µM (inactive).

Take `CC(=O)N1CCN(c2ncnc3ccccc23)CC1`: the IC50 is > 35.9 µM (inactive).

Consider `Cc1ccc(/C=C2\SC(=S)N(CCCC(=O)NC3CCCC3)C2=O)cc1`, for which the IC50 was > 35.9 µM (inactive).

As to `c1ccc(-c2nnc(-c3ccccn3)nc2NC2CCCCC2)cc1`, the IC50 was > 35.9 µM (inactive).

Regarding `O=C(O)CN1C(=O)/C(=C\c2ccccc2OCc2ccc(Cl)cc2Cl)SC1=S`, the IC50 was > 35.9 µM (inactive).

In the case of `Cc1cc(/C=C2\Cc3ccccc3C2=O)c(C)n1-c1ccccc1`, the IC50 was > 35.9 µM (inactive).

Take `Cc1c(Cl)cccc1N=c1c([N+](=O)[O-])nn(-c2ccc3c(c2)OCCO3)n1O`: the IC50 is > 35.9 µM (inactive).

Regarding `Cc1ccc(N=c2c([N+](=O)[O-])nn(-c3ccc4c(c3)OCCO4)n2O)cc1F`, the IC50 is > 35.9 µM (inactive).

As to `S=C(Nc1ccccc1)Nc1ccc(OCc2ccc(Cl)cc2Cl)cc1`, the IC50 is > 35.9 µM (inactive).

In the case of `CCCCC(=O)Nc1cccn2ncnc12`, the IC50 is > 35.9 µM (inactive).
